Measurements from ChEMBL document CHEMBL1201861, “Genomics of Drug Sensitity in Cancer screening data, Wellcome Trust Sanger Institute”.

Tests used:
Test in all cases: cells
LAN-6 = format: functional, cell-based, Homo sapiens; conditions: Homo sapiens, LAN-6;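 further: growth inhibition of LAN-6 cells, determined with a cell viability assay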
Description: SANGER: Inhibition of human LAN-6 cell growth in a cell viability assay.

TE-5 = format: functional, cell-based, Homo sapiens; conditions: Homo sapiens, TE-5;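 further: inhibition of cell growth, read out by a cell viability assay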
Description: SANGER: Inhibition of human TE-5 cell growth in a cell viability assay.

no-11 = format: functional, cell-based, Homo sapiens; conditions: Homo sapiens;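 further: growth inhibition of human NO-11 cells, read out with a cell viability assay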
Description: SANGER: Inhibition of human no-11 cell growth in a cell viability assay.

SHP77 = format: functional, cell-based, Homo sapiens, SHP-77; conditions: Homo sapiens, SHP77;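 further: growth inhibition of human SHP-77 cells measured by a cell viability assay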
Description: SANGER: Inhibition of human SHP-77 cell growth in a cell viability assay.

ML-2 = format: functional, cell-based, Homo sapiens; conditions: Homo sapiens, ML-2;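 further: growth inhibition of ML-2 cells, measured with a cell viability readout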
Description: SANGER: Inhibition of human ML-2 cell growth in a cell viability assay.

CGTH-W-1 = format: functional, cell-based, Homo sapiens; conditions: Homo sapiens, CGTH-W-1;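 further: growth inhibition of human CGTH-W-1 cells measured by cell viability assay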
Description: SANGER: Inhibition of human CGTH-W-1 cell growth in a cell viability assay.

KS-1 = format: functional, cell-based, Homo sapiens; conditions: Homo sapiens, KS-1;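 further: growth inhibition of KS-1 cells, read out with a cell viability assay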
Description: SANGER: Inhibition of human KS-1 cell growth in a cell viability assay.

HH = format: functional, cell-based, Homo sapiens; conditions: Homo sapiens, HH
Description: SANGER: Inhibition of human HH cell growth in a cell viability assay.

TE-12 = format: functional, cell-based, Homo sapiens; conditions: Homo sapiens, TE-12;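 further: growth inhibition of TE-12 cells, read out by a cell viability assay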
Description: SANGER: Inhibition of human TE-12 cell growth in a cell viability assay.

TE-9 = format: functional, cell-based, Homo sapiens; conditions: Homo sapiens, TE-9;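 further: cell growth inhibition, measured with a cell viability readout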
Description: SANGER: Inhibition of human TE-9 cell growth in a cell viability assay.

8-MG-BA = format: functional, cell-based, Homo sapiens; conditions: Homo sapiens, 8-MG-BA;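 further: growth inhibition of 8-MG-BA cells, read out with a cell viability assay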
Description: SANGER: Inhibition of human 8-MG-BA cell growth in a cell viability assay.

LB771-HNC = format: functional, cell-based, Homo sapiens; conditions: Homo sapiens, LB771-HNC;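 further: growth inhibition of LB771-HNC human cells, read out with a cell viability assay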
Description: SANGER: Inhibition of human LB771-HNC cell growth in a cell viability assay.

EW-1 = format: functional, cell-based, Homo sapiens; conditions: Homo sapiens, EW-1
Description: SANGER: Inhibition of human EW-1 cell growth in a cell viability assay.

A388 = format: functional, cell-based, Homo sapiens; conditions: Homo sapiens, A388;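 further: growth inhibition of human A388 cells, read out with a cell viability assay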
Description: SANGER: Inhibition of human A388 cell growth in a cell viability assay.

JAR = format: functional, cell-based, Homo sapiens; conditions: Homo sapiens, JAR;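 further: growth inhibition of human JAR cells determined with a cell viability assay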
Description: SANGER: Inhibition of human JAR cell growth in a cell viability assay.

SW982 = format: functional, cell-based, Homo sapiens; conditions: Homo sapiens, SW982;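 further: growth inhibition of SW982 cells, read out with a cell viability assay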
Description: SANGER: Inhibition of human SW982 cell growth in a cell viability assay.

COLO-320-HSR = format: functional, cell-based, Homo sapiens; conditions: Homo sapiens, COLO-320-HSR;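 further: growth inhibition of COLO-320-HSR cells, determined with a cell viability assay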
Description: SANGER: Inhibition of human COLO-320-HSR cell growth in a cell viability assay.

EOL1 = format: functional, cell-based, Homo sapiens; conditions: Homo sapiens, EOL1;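 further: growth inhibition of EoL-1 cells, read out by a cell viability assay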
Description: SANGER: Inhibition of human EoL-1-cell cell growth in a cell viability assay.

KNS-42 = format: functional, cell-based, Homo sapiens; conditions: Homo sapiens, KNS-42;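 further: growth inhibition of KNS-42 cells, read out with a cell viability assay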
Description: SANGER: Inhibition of human KNS-42 cell growth in a cell viability assay.

NCI-H1299 = format: functional, cell-based, Homo sapiens; conditions: Homo sapiens, NCI-H1299;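 further: growth inhibition of human NCI-H1299 cells, read out by a cell viability assay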
Description: SANGER: Inhibition of human NCI-H1299 cell growth in a cell viability assay.

ALL-PO = format: functional, cell-based, Homo sapiens; conditions: Homo sapiens, ALL-PO;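 further: growth inhibition of ALL-PO cells, read out by a cell viability assay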
Description: SANGER: Inhibition of human ALL-PO cell growth in a cell viability assay.

KM-H2 = format: functional, cell-based, Homo sapiens; conditions: Homo sapiens, KM-H2;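 further: growth inhibition of KM-H2 cells, read out by a cell viability assay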
Description: SANGER: Inhibition of human KM-H2 cell growth in a cell viability assay.

COLO-668 = format: functional, cell-based, Homo sapiens; conditions: Homo sapiens, COLO-668
Description: SANGER: Inhibition of human COLO-668 cell growth in a cell viability assay.

EW-11 = format: functional, cell-based, Homo sapiens; conditions: Homo sapiens, EW-11;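 further: growth inhibition of human EW-11 cells, measured with a cell viability assay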
Description: SANGER: Inhibition of human EW-11 cell growth in a cell viability assay.

DB = format: functional, cell-based, Homo sapiens; conditions: Homo sapiens, DB
Description: SANGER: Inhibition of human DB cell growth in a cell viability assay.

NCI-H720 = format: functional, cell-based, Homo sapiens; conditions: Homo sapiens, NCI-H720;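 further: growth inhibition of human NCI-H720 cells determined by a cell viability assay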
Description: SANGER: Inhibition of human NCI-H720 cell growth in a cell viability assay.

MZ7-mel = format: functional, cell-based, Homo sapiens; conditions: Homo sapiens, MZ7-mel;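 further: growth inhibition of human MZ7-mel cells, measured by a cell viability assay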
Description: SANGER: Inhibition of human MZ7-mel cell growth in a cell viability assay.

HL-60 = format: functional, cell-based, Homo sapiens; conditions: Homo sapiens, HL-60;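 further: growth inhibition of human HL-60 cells, read out with a cell viability assay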
Description: SANGER: Inhibition of human HL-60 cell growth in a cell viability assay.

GAK = format: functional, cell-based, Homo sapiens; conditions: Homo sapiens, GAK;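 further: cell growth inhibition read out by a cell viability assay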
Description: SANGER: Inhibition of human GAK cell growth in a cell viability assay.

KURAMOCHI = format: functional, cell-based, Homo sapiens; conditions: Homo sapiens, KURAMOCHI;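 further: growth inhibition of KURAMOCHI cells, read out with a cell viability assay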
Description: SANGER: Inhibition of human KURAMOCHI cell growth in a cell viability assay.

COLO-829 = format: functional, cell-based, Homo sapiens; conditions: Homo sapiens, COLO-829
Description: SANGER: Inhibition of human COLO-829 cell growth in a cell viability assay.

COLO-800 = format: functional, cell-based, Homo sapiens; conditions: Homo sapiens, COLO-800;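 further: growth inhibition of COLO-800 cells, read out with a cell viability assay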
Description: SANGER: Inhibition of human COLO-800 cell growth in a cell viability assay.

HCE-4 = format: functional, cell-based, Homo sapiens; conditions: Homo sapiens, HCE-4;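 further: cell viability assay measuring inhibition of growth in the human HCE-4 cell line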
Description: SANGER: Inhibition of human HCE-4 cell growth in a cell viability assay.

EW-16 = format: functional, cell-based, Homo sapiens; conditions: Homo sapiens, EW-16;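 further: growth inhibition of human EW-16 cells, read out as cell viability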
Description: SANGER: Inhibition of human EW-16 cell growth in a cell viability assay.

LS-123 = format: functional, cell-based, Homo sapiens; conditions: Homo sapiens, LS-123
Description: SANGER: Inhibition of human LS-123 cell growth in a cell viability assay.

TE-8 = format: functional, cell-based, Homo sapiens; conditions: Homo sapiens, TE-8;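 further: growth inhibition of TE-8 cells, measured with a cell viability readout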
Description: SANGER: Inhibition of human TE-8 cell growth in a cell viability assay.

Calu-6 = format: functional, cell-based, Homo sapiens; conditions: Homo sapiens, Calu-6;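 further: growth of human Calu-6 cells, read out by a cell viability assay, IC50 marking inhibition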
Description: SANGER: Inhibition of human Calu-6 cell growth in a cell viability assay.

A253 cell line = format: functional, cell-based, Homo sapiens; conditions: Homo sapiens, A253;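 further: growth inhibition of A253 cells, read out with a cell viability assay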
Description: SANGER: Inhibition of human A253 cell growth in a cell viability assay.

BV-173 = format: functional, cell-based, Homo sapiens; conditions: Homo sapiens, BV-173
Description: SANGER: Inhibition of human BV-173 cell growth in a cell viability assay.

COLO-684 = format: functional, cell-based, Homo sapiens; conditions: Homo sapiens, COLO-684
Description: SANGER: Inhibition of human COLO-684 cell growth in a cell viability assay.

HDLM-2 = format: functional, cell-based, Homo sapiens; conditions: Homo sapiens, HDLM-2;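 further: cell viability assay measuring suppression of HDLM-2 proliferation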
Description: SANGER: Inhibition of human HDLM-2 cell growth in a cell viability assay.

NCI-H1395 = format: functional, cell-based, Homo sapiens; conditions: Homo sapiens, NCI-H1395;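 further: cell viability assay read-out quantifying reduced proliferation of human NCI-H1395 cells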
Description: SANGER: Inhibition of human NCI-H1395 cell growth in a cell viability assay.

D-392MG = format: functional, cell-based, Homo sapiens; conditions: Homo sapiens, D-392MG
D283 Med = format: functional, cell-based, Homo sapiens; conditions: Homo sapiens, D283 Med
Description: SANGER: Inhibition of human D-283MED cell growth in a cell viability assay.

ES8 = format: functional, cell-based, Homo sapiens; conditions: Homo sapiens, ES8;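 further: growth inhibition of human ES8 cells, read out with a cell viability assay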
Description: SANGER: Inhibition of human ES8 cell growth in a cell viability assay.

HCC 2998 = format: functional, cell-based, Homo sapiens; conditions: Homo sapiens, HCC 2998;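 further: growth inhibition of human HCC2998 cells, measured with a cell viability read-out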
Description: SANGER: Inhibition of human HCC2998 cell growth in a cell viability assay.

LOX IMVI = format: functional, cell-based, Homo sapiens; conditions: Homo sapiens, LOX IMVI
Description: SANGER: Inhibition of human LOXIMVI cell growth in a cell viability assay.

BB30-HNC = format: functional, cell-based, Homo sapiens; conditions: Homo sapiens, BB30-HNC;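 further: growth inhibition of the cultured cell line, read out by a cell viability assay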
Description: SANGER: Inhibition of human BB30-HNC cell growth in a cell viability assay.

SMILES: COc1cccc2c1C(=O)c1c(O)c3c(c(O)c1C2=O)C[C@@](O)(C(=O)CO)C[C@@H]3O[C@H]1C[C@H](N)[C@H](O)[C@H](C)O1 [DOXORUBICIN]
- IC50 (LAN-6): 315 nM
- IC50 (TE-5): 37.5 nM
- IC50 (no-11): 322 nM
- IC50 (SHP77): > 1020 nM
- IC50 (ML-2): 135 nM
- IC50 (CGTH-W-1): 53.5 nM
- IC50 (KS-1): 3.44 nM
- IC50 (HH): 241 nM
- IC50 (TE-12): 81.1 nM
- IC50 (TE-9): 257 nM
- IC50 (8-MG-BA): 22.1 nM
- IC50 (LB771-HNC): > 1020 nM
- IC50 (EW-1): 61.3 nM
- IC50 (A388): 28.5 nM
- IC50 (JAR): 626 nM
- IC50 (SW982): 6.05 nM
- IC50 (COLO-320-HSR): 513 nM
- IC50 (EOL1): 27.8 nM
- IC50 (KNS-42): 243 nM
- IC50 (NCI-H1299): 37.6 nM
- IC50 (ALL-PO): 65 nM
- IC50 (KM-H2): 90.7 nM
- IC50 (COLO-668): 84.5 nM
- IC50 (EW-11): 342 nM
- IC50 (DB): 162 nM
- IC50 (NCI-H720): > 1020 nM
- IC50 (MZ7-mel): 113 nM
- IC50 (HL-60): 62.6 nM
- IC50 (GAK): 257 nM
- IC50 (KURAMOCHI): 127 nM
- IC50 (COLO-829): > 1020 nM
- IC50 (COLO-800): 172 nM
- IC50 (HCE-4): 18.1 nM
- IC50 (EW-16): 1.91 nM
- IC50 (LS-123): 18.5 nM
- IC50 (TE-8): 7.5 nM
- IC50 (Calu-6): 254 nM
- IC50 (A253 cell line): 46.1 nM
- IC50 (BV-173): 251 nM
- IC50 (COLO-684): 220 nM
- IC50 (HDLM-2): 569 nM
- IC50 (NCI-H1395): > 1020 nM
- IC50 (D-392MG): 249 nM
- IC50 (D283 Med): 250 nM
- IC50 (ES8): 21.1 nM
- IC50 (HCC 2998): 17.4 nM
- IC50 (LOX IMVI): 389 nM
- IC50 (BB30-HNC): 29.8 nM

SMILES: Nc1ccn([C@@H]2O[C@H](CO)[C@@H](O)C2(F)F)c(=O)n1 [GEMCITABINE]
- IC50 (LAN-6): > 1020 nM
- IC50 (TE-5): < 4 nM
- IC50 (no-11): 737 nM
- IC50 (SHP77): > 1020 nM
- IC50 (ML-2): 25.7 nM
- IC50 (CGTH-W-1): 2.72 nM
- IC50 (KS-1): 167 nM
- IC50 (HH): 35.1 nM
- IC50 (TE-12): > 1020 nM
- IC50 (TE-9): 190 nM
- IC50 (8-MG-BA): 5.93 nM
- IC50 (LB771-HNC): > 1020 nM
- IC50 (EW-1): 2.22 nM
- IC50 (A388): 1.36 nM
- IC50 (JAR): > 1020 nM
- IC50 (SW982): < 4 nM
- IC50 (COLO-320-HSR): 224 nM
- IC50 (EOL1): < 4 nM
- IC50 (KNS-42): 736 nM
- IC50 (NCI-H1299): < 4 nM
- IC50 (ALL-PO): < 4 nM
- IC50 (KM-H2): 261 nM
- IC50 (COLO-668): 2.66 nM
- IC50 (EW-11): 434 nM
- IC50 (DB): 84.4 nM
- IC50 (NCI-H720): > 1020 nM
- IC50 (MZ7-mel): 42.7 nM
- IC50 (HL-60): 15.7 nM
- IC50 (GAK): 373 nM
- IC50 (KURAMOCHI): > 1020 nM
- IC50 (COLO-829): > 1020 nM
- IC50 (COLO-800): 40.6 nM
- IC50 (HCE-4): < 4 nM
- IC50 (EW-16): < 4 nM
- IC50 (LS-123): 40.3 nM
- IC50 (TE-8): 8 nM
- IC50 (Calu-6): 1.73 nM
- IC50 (A253 cell line): 102 nM
- IC50 (BV-173): 17.3 nM
- IC50 (COLO-684): 26.4 nM
- IC50 (HDLM-2): > 1020 nM
- IC50 (NCI-H1395): > 1020 nM
- IC50 (D-392MG): 1020 nM
- IC50 (D283 Med): 127 nM
- IC50 (ES8): < 4 nM
- IC50 (HCC 2998): 6.34 nM
- IC50 (LOX IMVI): 1.6 nM
- IC50 (BB30-HNC): < 4 nM
